Earlier results, collected in patent publication US20060153907A1, “Liposome formulations of boronic acid compounds” (priority 2004, published 2006).

Test system: tumor lines
Settings: NCI in vitro screen

## CC(C)C[C@H](NC(=O)[C@H](Cc1ccccc1)NC(=O)c1cnccn1)B(O)O [bortezomib]
  cytotoxicity against a range of tumor lines: showed cytotoxicity
